# Laboratory results taken from patent US7919579B2, “Imaging and therapeutic targeting of prostate and bladder tissues” (The Board of Regents of the University of Texas System, priority 2006, dated 2011).
# No end group written: not given here. *: point of attachment. FITC = O=C1OC2(c3ccc(O)cc3Oc3cc(O)ccc32)c2ccc(NC(=S)*)cc21
# B1: DOC-2/DAB2: native protein, expression plasmid transfection used as a positive control in pull-down (protein, UniProt P98082 2-770, looked up)
# Disabled homolog 2: SNEVETSATNGQPDQQAAPKAPSKKEKKKGPEKTDEYLLARFKGDGVKYKAKLIGIDDVPDARGDKMSQDSMMKLKGMAAAGRSQGQHKQRIWVNISLSGIKIIDEKTGVIEHEHPVNKISFIARDVTDNRAFGYVCGGEGQHQFFAIKTGQQAEPLVVDLKDLFQVIYNVKKKEEEKKKIEEASKAVENGSEALMILDDQTNKLKSGVDQMDLFGDMSTPPDLNSPTESKDILLVDLNSEIDTNQNSLRENPFLTNGITSCSLPRPTPQASFLPENAFSANLNFFPTPNPDPFRDDPFTQPDQSTPSSFDSLKSPDQKKENSSSSSTPLSNGPLNGDVDYFGQQFDQISNRTGKQEAQAGPWPFSSSQTQPAVRTQNGVSEREQNGFSVKSSPNPFVGSPPKGLSIQNGVKQDLESSVQSSPHDSIAIIPPPQSTKPGRGRRTAKSSANDLLASDIFAPPVSEPSGQASPTGQPTALQPNPLDLFKTSAPAPVGPLVGLGGVTVTLPQAGPWNTASLVFNQSPSMAPGAMMGGQPSGFSQPVIFGTSPAVSGWNQPSPFAASTPPPVPVVWGPSASVAPNAWSTTSPLGNPFQSNIFPAPAVSTQPPSMHSSLLVTPPQPPPRAGPPKDISSDAFTALDPLGDKEIKDVKEMFKDFQLRQPPAVPARKGEQTSSGTLSAFASYFNSKVGIPQENADHDDFDANQLLNKINEPPKPAPRQVSLPVTKSTDNAFENPFFKDSFGSSQASVASSQPVSSEMYRDPFGNPFA
# Key:
# [1] = set-up: species or system nude mice; settings: in vivo
# Procedure: FIGS. 9A-C—Comparison of delivery efficiency between different length of polyarginines. (FIG. 9A) In vitro uptake by bladder cancer cell lines 30 min after incubation. Relative uptake was determined by fluorometer and normalized using R11 5 μM (=1) in each cell line. (FIG. 9B) Animal study (n=3; 24 h post injection). The peptides (5 nmole/gram body weight) were administered via intravenous (IV) route. SV: seminal vesicle; CG: coagulation gland. (FIG. 9C) The tissue localization of FITC-R11 in mouse bladder.
# Although the cellular uptake mechanism of CPPs is not completely understood, they were not supposed to have cell specificity. Also, the efficiency of CPPs delivery varies among different species and length. For example, Mai et al. (2002) has reported that the 8-mer and 10-mer of polylysine have higher cell permeable efficiency for a broad range of cell types than polyarginine does. However, the inventors observed that polyarginine is more efficiency than polylysine in bladder cancer cells (FIG. 9A). In order to further determine whether R11 is the best polyarginine for bladder cancer cells, the inventors examined the uptake efficiency using different lengths of polyarginine.
# LNCaP [2] = settings: human, 5 μM
# Procedure: (§4) The fluorescence-labeled CPPs (TAT, Penetratin (PENE), KALA, R11 & K11) were synthesized and tested in a variety of PCa cells (LNCaP, C4-2, LAPC4 and PC3 cells). […] Different concentrations of each CPP were incubated with cells for 30 minutes prior to cell harvesting. Relative FITC intensity was determined by normalizing fluorescence intensity of each treatment with its cell numbers. […] R11 (5 μM) was incubated with cells at the indicated time. Relative FITC intensity was determined by normalizing fluorescence intensity of each treatment with its cell numbers. […] Cells were pulsed with R11 (5 μM) chased for the indicated time and the percentage of uptake was used time zero (=100%). Each column or data point represents mean±SD in triplicate. […]
# (§5) Therefore, the dynamics of R11 uptake was evaluated by incubating cells with 5 μM R11 for 5, 10 and 30 minutes. […]
# (§6) To determine the uptake efficiency of each CPP, different concentrations (0.1, 1, 5 μM) of FITC-tagged peptides were incubated with cells for 30 minutes (or different time for the time course study) then cells were washed twice with PBS and trypsinized. After washing with PBS twice, the total cell number was determined and cells were lysed in Tris Buffer (50 mM Tris-HCl, pH 7.5, 150 mM NaCl, 5 mM EDTA, 1% Triton X100). The fluorescence intensity was examined by fluorometer (excitation 490-500 nm; emission 515-525 nm). […]
# C4-2 = settings: human, 5 μM
# Procedure: as §4, §5, §6
# LAPC4 = settings: human, 5 μM
# Procedure: as §4, §5, §6
# PC3 = settings: human, 5 μM
# Procedure: as §4, §5, §6
# [3] = system: lung metastasis of T24 bladder cancer; settings: mouse, in vivo
# Procedure: Top right panel, athymic nude mice were chosen based on a similar size of lung metastasis of bladder cancer from BLI were IV injected with 5 nmole FITC-R11 (left) or FITC (right) per gram body weight. Twenty-four hours after injection, whole body imaging (top left panel) or ex vivo imaging (bottom middle and right panel) of lung was carried out with Maestro In-vivo Imaging System (CRI, Inc.). The image shown is one of the representative experiments.
# in vitro = settings: human
# Procedure: as §4, §5, §6
# [4] = system: PCa cells (LNCaP, C4-2, LAPC4 and PC3); experiment: uptake of FITC-tagged CPPs by PCa cells (fluorometer); format: cell-based; settings: four PCa cells; 30 minutes
# Procedure: Cell culture and peptide incubation. All PCa cell lines (LNCaP, C4-2, LAPC4 and PC3) were maintained as described previously (Zhou et al., 2005). To determine the peptide uptake, 1×10^5 cells per well were plated in a 12-well plate. Next day, the culture medium was replaced with RPMI medium supplemented with 0.5% FBS (Invitrogen, Carlsbad, Calif.) containing different concentrations fluorescence (FITC)-tagged peptides and incubation was carried out at the indicated time. For determining cellular location of peptide, cells were cultured overnight in slide chamber at a density of 25×10^4/cm^2. The FITC tagged peptides were incubated for 30 minutes in the presence of RPMI medium supplemented with 0.5% of FBS prior to fluorescence microscopy.
# Fluorescence intensity determination and Fluorescence microscopy.
# Screening of the most efficient CPP uptake by prostate cancer (PCa) cell lines. To deliver small peptide into target cells, CPP was employed as a delivery system. Five different CPPs were synthesized including TAT (amino acid 49-57), Penetratin (Antennapedia 43-58) (PENE), KALA peptide, poly-arginine (R11) and poly-lysine (K11). All the CPPs were incorporated with a FITC-labeled glycine at their N-terminal ends. […] To determine the uptake quantitatively, fluorometer was used to measure the intensity of each CPP per cell basis. To rule out the possible artifacts such as CPP only associated with the cell surface and the pH variation from different organelles, cells were trypsinized and washed extensively with PBS, and a buffer with neutral pH was used in this experiment. […] In general, the uptake efficiency of five different CPPs tested can be considered as R11>>KALA≧TAT≧PENE≧K11 among four PCa cells.
# [5] = system: R11 uptake by bladder cancer cells; experiment: inhibitor and GAG competition of R11 uptake in bladder cancer cells; format: cell-based, human; settings: for competition of R11 uptake by GAGs: various concentrations of GAG with 5 μM R11, 30 min
# Procedure: FIGS. 10A-C—Determination of primary interaction molecule for R11 uptake in several bladder cancer cells. Human bladder cancer cells were pre-treated with various inhibitors (FIG. 10A: EIPA; FIG. 10B: Toxin B) 2 h and then incubated with 5 μM CPPs for 30 min before harvesting cell for determining cellular uptake. For competition assay, various concentrations of GAG's and 5 μM R9, R11, or R13 were added into cells for 30 min before harvesting cell for determining cellular uptake (FIG. 10C). Relative uptake was determined based on control (=1).
# In order to define R11 as a bladder-specific molecular probe, it is critical to unveil the mechanism of R11 uptake. […] Furthermore, they examined a variety of glycosaminoglycans (GAGs) commonly detected in bladder wall (De Klerk, 1985) for their abilities to block the R11 uptake.
# C4-2 cells = experiment: cell growth assay (MTT), serum or DHT-induced proliferation; format: cell-based; settings: 5 μM peptide, 5% FBS or 10 nM DHT, MTT 4 days
# Procedure: (§1) FIGS. 3A-B—Inhibitory effect of R11PPL on serum and androgen-induced cell proliferation of PCa. LNCaP (FIG. 3A) or C4-2 cells (FIG. 3B) were incubated with 5 μM R11PPL, R11AAL or without peptide 3 hours before adding serum or DHT (10 nM) and relative cell number was determined by MTT assay. All the experiments were carried out in quadruplicates and repeated at least twice. Each column represents mean±SD in triplicate.
# (§2) Cell growth assay and cell cycle analysis. Cells were plated in 96-well plate at a density of 10^3 per well in T-medium supplemented with 5% charcoal-stripped FBS for overnight. Cells were incubated with or without indicated peptides (5 μM) for 3 hours in the presence of T-medium supplemented with 0.5% charcoal-stripped FBS. Subsequently, cells were replaced with T-medium containing either 5% FBS or 10 nM dihydrotestosterone (DHT). The peptides were changed every 2 days. The cell proliferation was determined 4 days after the initial peptide treatment by using 3-(4,5-dimethylthiazol-2-yl)-2,5-diphenyltetrazolium bromide (MTT) assay (Roche, Indianapolis, Ind.).
# LNCaP [6] = experiment: as above; format: cell-based; settings: 5 μM peptide, 5% FBS or 10 nM DHT, MTT 4 days
# Procedure: as §1, §2
# [7] = system: interaction of Grb2 with SOS; experiment: in vitro pull down assay, GST-Grb2 (SH3) binding of SOS; settings: C4-2 cell lysate after EGF; peptide 10, 30, 100 μM
# Procedure: (§3) FIGS. 4A-B—Mechanism of action of R11PPL in PCa cells. To determine the function of R11PPL (SEQ ID NO:11) on interaction of Grb2 with SOS, the C4-2 cell lysates were collected after treated with EGF (FIG. 4A). The GST fusion protein with SH3 domain of Grb2 was used for the pull-down assay. The same amount of immobilized GST-Grb2 (SH3) protein (IB:αGST) was incubated with equal amount of cell lysate in addition of no peptide, the increasing amount of control R11AAL (SEQ ID NO:10) or R11PPL (SEQ ID NO:11) peptide as indicated. The binding of SOS was analyzed with Western Blot using SOS1 antibody. DOC-2/DAB2 expression plasmid transfection was used as a positive control. To examine the effect of R11PPL on MAP kinase activity (FIG. 4B), C4-2 cells were incubated with 5 μM R11PPL, R11AAL or R11 (SEQ ID NO:6) peptide 3 hours before adding EGF (10 ng/ml) (top panel) or 5% FBS (bottom panel). Cell lysates were subjected to western blot analysis probed with phosphorylated Erk1 and 2 antibody (αpErk1/2) or total Erk2 antibody (αErk2) used as a loading control. Each experiment has been repeated twice; this graph represents the typical result.
# In vitro pull down assay. […] The increasing concentrations of peptide (10, 30, 100 μM) for R11PPL or R11AAL were also added during the incubation. […]
# [8] = system: MAP kinase (Erk2) activation; experiment: Western blot of phosphorylated Erk1/2 in C4-2 cells; format: cell-based
# Procedure: as §3
# Western blot analysis. Cells were plated in 6-well plates (2×10^5 per well) with T medium containing 5% FBS. […] The protein intensity was detected using an enhanced chemiluminescence detection kit (Amersham, Piscataway, N.J.). […]
molecule,measurement,setting,value
"N=C(N)NCCC[C@H](NC(=O)[C@H](CCCNC(=N)N)NC(=O)[C@H](CCCNC(=N)N)NC(=O)[C@H](CCCNC(=N)N)NC(=O)[C@H](CCCNC(=N)N)NC(=O)[C@H](CCCNC(=N)N)NC(=O)[C@H](CCCNC(=N)N)NC(=O)[C@H](CCCNC(=N)N)NC(=O)[C@H](CCCNC(=N)N)NC(=O)[C@H](CCCNC(=N)N)NC(=O)[C@H](CCCNC(=N)N)NC(=O)CNC(=S)Nc1ccc2c(c1)C(=O)OC21c2ccc(O)cc2Oc2cc(O)ccc21)C(=O)O [R11, ^FITC-G-R11]",tissue localization in mouse bladder (histologic examination),[1],presence of R11 in both transitional and stromal cell compartments of bladder
same,half-life of R11,LNCaP [2],23.4 h
same,half-life of R11,C4-2,24.1 h
same,half-life of R11,LAPC4,22.8 h
same,half-life of R11,PC3,24.0 h
same,ex vivo fluorescence signal of lung tumor lesion,[3],clear fluorescence signal is visualized in the ex vivo tumor lesion
same,half-life at 5 μM,in vitro,23 to 24 h
"^FITC-G-RKKRRQRRR (N-terminal FITC-Gly) [TAT, CPP derived from HIV TAT amino acid 49-57, FITC-labeled]",uptake efficiency among five CPPs (rank),[4],R11>>KALA≧TAT≧PENE≧K11
"^FITC-G-KLALKLALKALKAALKLA ({FITC}-GKLALKLALKALKAALKLA) [KALA, KALA peptide, FITC-labeled]",uptake efficiency among five CPPs (rank),[4],R11>>KALA≧TAT≧PENE≧K11
pentosan sulfate,competition of R11 uptake by GAGs,[5],effectively compete the uptake of R11
CCN(c1nc(N)c(C(=O)NC(=N)N)nc1Cl)C(C)C [EIPA],effect of inhibitor on R11 uptake,"[5]; pre-treated 2 h, then 5 μM CPPs 30 min",effectively diminish R11 uptake
^FITC-G- RRRRRRRRRRR -GG-FQLRQAALVASRKGE [R11AAL],"uptake of R11, R11AAL and R11PPL compared",[4],very similar
same,serum or DHT-induced cell proliferation,C4-2 cells,did not exhibit any effect
same,serum or DHT-induced cell proliferation,LNCaP [6],did not exhibit any effect
"^FITC-G-RRRRRRRRRRR-GGG-FQLRQPPLVPSRKGE ({FITC}-GRRRRRRRRRRRGGGFQLRQPPLVPSRKGE) [R11PPL, FITC-R11 conjugated with PPL (DOC-2/DAB2 PR domain) at C-terminus]","uptake of R11, R11AAL and R11PPL compared",[4],very similar
same,serum or DHT-induced cell proliferation,C4-2 cells,suppressed
same,serum or DHT-induced cell proliferation,LNCaP [6],suppressed
same,interaction between Grb2 and SOS,[7],dose-dependent inhibitory effect
same,serum-induced activation of Erk2,[8]; 5 μM peptide 3 hours before 5% FBS,suppressed
same,EGF induced activation of Erk2,[8]; 5 μM peptide 3 hours before EGF 10 ng/ml,could suppress
dextran sulfate,competition of R11 uptake by GAGs,[5],effectively compete the uptake of R11
protamine sulfate,competition of R11 uptake by GAGs,[5],effectively compete the uptake of R11
B1,interaction between Grb2 and SOS,[7],inhibited
